Results reported in PubChem BioAssay (NCI).
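Growth conditions: 96-well plates. Treatment: test compound, 48 hours, 5 concentrations. Analysis: linear interpolation between bracketing concentrations; unreached endpoints set to highest concentration. GI50 is the concentration that inhibits growth by half. TGI denotes the concentration required for complete inhibition of growth.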

Experiments:
Assay in all cases: NCI-60 cell line screen, 48 h
[1] = test system: ACHN renal
[2] = test system: HCC-2998 colon
[3] = test system: HOP-62 NSCLC
[4] = test system: HOP-92 NSCLC
[5] = test system: MALME-3M melanoma
[6] = test system: MOLT-4 leukemia
[7] = test system: SK-OV-3 ovarian
[8] = test system: SN12C renal
[9] = test system: SNB-75 CNS
[10] = test system: UO-31 renal
[11] = test system: KM12 colon

SMILES | TGI [1] | TGI [2] | TGI [3] | TGI [4] | TGI [5] | TGI [6] | TGI [7] | TGI [8] | TGI [9] | TGI [10] | TGI [11] | GI50 [1] | GI50 [2] | GI50 [3] | GI50 [4] | GI50 [11] | GI50 [5] | GI50 [7] | GI50 [9] | GI50 [10]
O=C(Cn1c(=O)oc2ccc(C(=O)c3cccc(Cl)c3)cc21)c1ccccc1 | > 100 µM | 78.6 µM | > 100 µM | > 100 µM | > 100 µM | > 100 µM | > 100 µM | > 100 µM | > 100 µM | > 100 µM | – | – | – | – | – | – | – | – | – | –
Cc1cc(S(=O)(=O)Nc2n[nH]c(Nc3ccccc3)n2)c(SSc2cc(Cl)c(C)cc2S(=O)(=O)Nc2n[nH]c(Nc3ccccc3)n2)cc1Cl | > 100 µM | – | > 100 µM | – | > 100 µM | > 100 µM | > 100 µM | > 100 µM | > 100 µM | > 100 µM | > 100 µM | – | – | – | – | – | – | – | – | –
Cc1cc(OCc2nnc3n2N=C(c2cc(F)c(Cl)cc2Cl)/C(=C/c2ccc(-c4ccc(Cl)cc4)o2)S3)ccc1Cl | > 50 µM | > 50 µM | > 50 µM | – | > 50 µM | > 50 µM | – | > 50 µM | – | > 50 µM | > 50 µM | – | – | – | – | – | – | – | – | –
COc1cccc(N(CN2C(=O)CCC2OC)C(C)=O)c1 (stereo not given) | > 100 µM | > 100 µM | > 100 µM | > 100 µM | – | > 100 µM | > 100 µM | > 100 µM | > 100 µM | > 100 µM | > 100 µM | – | – | – | – | – | – | – | – | –
COC(=O)C(CNC(=O)/C=C/c1ccc(OC(C)=O)c(OC(C)=O)c1)NC(=O)/C=C/c1ccc(OC(C)=O)c(OC(C)=O)c1 (stereo not given) | > 100 µM | > 100 µM | > 100 µM | > 100 µM | > 100 µM | 81.5 µM | > 100 µM | > 100 µM | – | > 100 µM | > 100 µM | – | – | – | – | – | – | – | – | –
CCOP(=O)(Cc1nc(C#N)c(N)o1)OCC | > 100 µM | > 100 µM | > 100 µM | > 100 µM | > 100 µM | > 100 µM | > 100 µM | > 100 µM | – | – | > 100 µM | – | – | – | – | – | – | – | – | –
OC(CCl)CN1CC[N+]2(CC1)CC[N+]1(CCN(CC(O)CCl)CC1)CC2 (stereo not given) | > 50 µM | > 50 µM | – | > 50 µM | > 50 µM | > 50 µM | > 50 µM | > 50 µM | > 50 µM | > 50 µM | > 50 µM | – | – | – | – | – | – | – | – | –
CCCCCCCCCCOc1ccc(N=Nc2nnc(-c3ccc(OCCCCC)cc3)s2)cc1 | > 100 µM | > 100 µM | > 100 µM | > 100 µM | > 100 µM | > 100 µM | > 100 µM | > 100 µM | – | – | > 100 µM | – | – | – | – | – | – | – | – | –
O=[N+]([O-])c1ccc(Nc2cccc3c2[nH]c2c(-c4ccccc4)nccc23)c([N+](=O)[O-])c1 | – | > 100 µM | > 100 µM | > 100 µM | > 100 µM | > 100 µM | > 100 µM | > 100 µM | > 100 µM | > 100 µM | > 100 µM | – | – | – | – | – | – | – | – | –
O=C1Nc2ccccc2SC1=C(C(=O)c1ccccc1)C(=O)c1ccccc1 | > 100 µM | 63.8 µM | > 100 µM | 99.9 µM | > 100 µM | – | 65.3 µM | > 89.8 µM | > 94.6 µM | > 100 µM | > 100 µM | – | – | – | – | – | – | – | – | –
CC1=NN2CCC(=O)N=C2S1 | > 100 µM | – | > 100 µM | > 100 µM | > 100 µM | > 100 µM | > 100 µM | > 100 µM | > 100 µM | – | > 100 µM | – | – | – | – | – | – | – | – | –
COc1ccc(C2=NN(c3nsc4ccccc34)C(=O)CC2)cc1 | > 100 µM | > 100 µM | > 100 µM | > 100 µM | – | > 100 µM | – | > 100 µM | > 100 µM | > 100 µM | > 100 µM | – | – | – | – | – | – | – | – | –
CN1C/C(=C\c2cccs2)C(=O)/C(=C/c2cccs2)C1 | 66.1 µM | 45.5 µM | > 100 µM | 67.3 µM | > 100 µM | 47.2 µM | > 100 µM | 76.5 µM | – | 45 µM | 83.3 µM | – | – | – | – | – | – | – | – | –
N=C(N)c1ccc(-c2ccc(-c3ccc(Cl)cc3Cl)s2)nc1 | 3.16 µM | 3.17 µM | 3.92 µM | 4 µM | 3.23 µM | – | 25.6 µM | – | 2.83 µM | 2.93 µM | 3.19 µM | 1.77 µM | 1.74 µM | 1.89 µM | 1.76 µM | 1.76 µM | 1.71 µM | 8 µM | 1.43 µM | 1.57 µM
CC1=NN(c2nc(N)nc(-c3cc4ccccc4oc3=N)n2)C(C)(C)C1 | 34.8 µM | 28.8 µM | 37.2 µM | 42.7 µM | 32.2 µM | 34.6 µM | 34.7 µM | 43 µM | – | 37.4 µM | 34.2 µM | – | – | – | – | – | – | – | – | –
O=C1c2cc3ncsc3cc2C(=O)c2c(O)ccc(O)c21 | > 100 µM | > 100 µM | > 100 µM | > 100 µM | > 100 µM | > 100 µM | – | > 100 µM | > 100 µM | > 100 µM | > 100 µM | – | – | – | – | – | – | – | – | –
C=C(Cl)CN1c2ccccc2C=Cc2ccccc21 | 35.4 µM | 33.7 µM | 89.9 µM | 61.2 µM | 77.9 µM | – | > 100 µM | 57.3 µM | 61.9 µM | 82 µM | 48.9 µM | – | – | – | – | – | – | – | – | –
CCc1n[nH]c(=O)[nH]1 | > 100 µM | > 100 µM | > 100 µM | – | > 100 µM | > 100 µM | > 100 µM | > 100 µM | > 100 µM | > 100 µM | > 100 µM | – | – | – | – | – | – | – | – | –
CSc1nc(-c2ccccc2)nc(=[N+]2CCOCC2)s1 | > 100 µM | > 100 µM | > 100 µM | – | > 100 µM | > 100 µM | > 100 µM | > 100 µM | > 100 µM | > 100 µM | > 100 µM | – | – | – | – | – | – | – | – | –
CC(C)N1[C@@H]2CCCC[C@H]2N(C(C)C)[P+]1=O | > 100 µM | > 100 µM | > 100 µM | > 100 µM | – | > 100 µM | > 100 µM | > 100 µM | > 100 µM | > 100 µM | > 100 µM | – | – | – | – | – | – | – | – | –
NC(=S)NS(=O)(=O)c1ccc(Cl)cc1 | > 100 µM | > 100 µM | > 100 µM | – | > 100 µM | > 100 µM | > 100 µM | > 100 µM | > 100 µM | – | > 100 µM | – | – | – | – | – | – | – | – | –
